From US20090209460A1, “COMPOSITIONS AND METHODS FOR TREATING OBESITY AND RELATED METABOLIC DISORDERS” (Amylin Pharmaceuticals, Inc., priority 2005, published 2009)
Where two headings read alike, the source gives them in different places. Residues, ends and D or L forms follow the SMILES beside them.

Legend:
[1] = brush border membrane (BBM) stability assay; assay type: in vitro ADME, human; settings: brush border membrane extract (e.g. kidney)
Method: Some exemplary NMX Peptides and FNX Peptides were tested for stability in a brush border membrane (BBM) assay as described herein. To determine the enzymatic stability of peptide hormones peptides are incubated with a preparation of human brush border membranes extract (e.g., kidney), and the stability of the peptide is determined by measuring concentration of the intact peptide at specific intervals. The brush border membrane extract contains dipeptidyl peptidase IV (DPP-IV), neutral endopeptidases, peptidyl-dipeptidase A, carboxypeptidases and aminopeptidases. These are the primary enzymes that degrade peptides in vivo and are found in the kidneys, liver, lungs and pancreas. Resistance against these human proteases would increase peptide half-life. In the BBM assay test peptide was subjected to digestion over a period of five (5) hours with human brush border membrane extracts, e.g. kidney, at 37° C. At desired timepoints digestion was stopped by addition of quench solution, typically 50% ACN, 1% FA. After centrifugation to remove membrane debris, supernatant was subjected to mass spectrometry using a selected ion scan for the intact molecule of interest. Values are expressed as a percent of stable. A value of at least 80 or greater is regarded as an extremely stable molecule. A value of at least 70 or greater is a molecule with significant stability.

NIH/Swiss mice = experiment: acute food intake assay, lean overnight-fasted NIH/Swiss mice, intraperitoneal injection; assay type: in vivo, mouse; settings: for Food Intake Inhibition: mouse assay, dose of 200 mg/kg, measured at 60 minutes
Method: The effect of NMX Peptides, FNX Peptides or NMX Receptor agonists on food intake when systemically administered was investigated using an acute food intake assay. This assay measured food consumption in lean subjects. Lean, group-housed, overnight-fasted NIH/Swiss mice. All in vivo tests were performed with peripheral injections of peptide. […] The dose-response data are presented herein. The protocol is described below. Female NIH/Swiss mice (8-24 weeks old) were group housed with a 12:12 hour light:dark cycle, with lights on at 0300. Water and a standard pelleted mouse chow diet are available ad libitum, except as noted. Animals are fasted starting at approximately 1530 hrs, 1 day prior to experiment. At time=0 min, all animals are given an intraperitoneal injection of vehicle or polypeptide in a volume of 200 uL/mouse and immediately given a pre-weighed amount (10-15 g) of the standard chow. Food is removed and weighed at 30, 60, and 120 minutes to determine the amount of food consumed. The effects of treatment on food intake are expressed as % change relative to control.

[2] = percent compound remaining after a 5 hour incubation, human brush border membrane assay, read-out: hBBM

| SMILES | remaining at 5 h ([1]; percent of stable, human brush border membrane extracts, five hours, 37° C., read-out: BBM) [%] | remaining at 5 h [1, 2] [%] | FI (60′, 200) (NIH/Swiss mice; food intake, % change relative to control, 60 min, dose 200) [%] | Food Intake Inhibition (NIH/Swiss mice) [%] |
| --- | --- | --- | --- | --- |
| CC(C)C[C@H](NC(=O)[C@H](CCCCN)NC(=O)[C@H](CCC(N)=O)NC(=O)[C@@H](NC(=O)[C@H](CCCCN)NC(=O)[C@H](CO)NC(=O)[C@H](Cc1ccc(O)cc1)NC(=O)[C@H](Cc1c[nH]cn1)NC(=O)[C@H](Cc1ccccc1)NC(=O)[C@H](CC(C)C)NC(=O)[C@@H](N)Cc1ccccc1)[C@@H](C)O)C(=O)NCC(=O)N[C@@H](CCCCN)C(=O)N[C@@H](CO)C(=O)N[C@@H](CC(N)=O)C(=O)N[C@H](C(=O)N[C@H](C(=O)N[C@@H](CCC(=O)O)C(=O)N[C@@H](CCC(=O)O)C(=O)N[C@@H](CC(C)C)C(=O)N[C@@H](CCC(N)=O)C(=O)N[C@@H](CO)C(=O)N1CCC[C@H]1C(=O)N[C@@H](Cc1ccccc1)C(=O)N[C@@H](C)C(=O)N[C@@H](CO)C(=O)N[C@@H](CCC(N)=O)C(=O)N[C@@H](CO)C(=O)N[C@@H](CCCNC(=N)N)C(=O)NCC(N)=O)C(C)C)C(C)C [Compound 165062] (H-FLFHYSKTQKLGKSNVVEELQSPFASQSRG-NH2; N-terminus assumed) | 40 |  | 0 |  |
| CC(C)C[C@H](NC(=O)[C@H](CCCCN)NC(=O)[C@H](CCC(N)=O)NC(=O)[C@@H](NC(=O)[C@H](CCCCN)NC(=O)[C@H](CO)NC(=O)[C@@H](N)Cc1ccc(O)cc1)[C@@H](C)O)C(=O)NCC(=O)N[C@@H](CCCCN)C(=O)N[C@@H](CO)C(=O)N[C@@H](CC(N)=O)C(=O)N[C@H](C(=O)N[C@H](C(=O)N[C@@H](CCC(=O)O)C(=O)N[C@@H](CCC(=O)O)C(=O)N[C@@H](CC(C)C)C(=O)N[C@@H](CCC(N)=O)C(=O)N[C@@H](CO)C(=O)N1CCC[C@H]1C(=O)N[C@@H](Cc1ccccc1)C(=O)N[C@@H](C)C(=O)N[C@@H](CO)C(=O)N[C@@H](CCC(N)=O)C(=O)N[C@@H](CO)C(=O)N[C@@H](CCCNC(=N)N)C(=O)NCC(=O)N[C@@H](Cc1ccc(O)cc1)C(=O)N[C@@H](Cc1ccccc1)C(=O)N[C@@H](CC(C)C)C(=O)N[C@@H](Cc1ccccc1)C(=O)N[C@@H](CCCNC(=N)N)C(=O)N1CCC[C@H]1C(=O)N[C@@H](CCCNC(=N)N)C(=O)N[C@@H](CC(N)=O)C(N)=O)C(C)C)C(C)C [Des-(Phe1,Leu2,Phe3,His4)FN38] (H-YSKTQKLGKSNVVEELQSPFASQSRGYFLFRPRN-NH2; N-terminus assumed) |  | 41 |  | −58 |
| CC(C)C[C@H](NC(=O)[C@H](CCC(=O)O)NC(=O)[C@H](CCC(=O)O)NC(=O)[C@@H](NC(=O)[C@@H](NC(=O)[C@H](CC(N)=O)NC(=O)[C@H](CO)NC(=O)[C@H](CCCCN)NC(=O)CNC(=O)[C@H](CC(C)C)NC(=O)[C@@H](N)CCCCN)C(C)C)C(C)C)C(=O)N[C@@H](CCC(N)=O)C(=O)N[C@@H](CO)C(=O)N1CCC[C@H]1C(=O)N[C@@H](Cc1ccccc1)C(=O)N[C@@H](C)C(=O)N[C@@H](CO)C(=O)N[C@@H](CCC(N)=O)C(=O)N[C@@H](CO)C(=O)N[C@@H](CCCNC(=N)N)C(=O)NCC(=O)N[C@@H](Cc1ccc(O)cc1)C(=O)N[C@@H](Cc1ccccc1)C(=O)N[C@@H](CC(C)C)C(=O)N[C@@H](Cc1ccccc1)C(=O)N[C@@H](CCCNC(=N)N)C(=O)N1CCC[C@H]1C(=O)N[C@@H](CCCNC(=N)N)C(=O)N[C@@H](CC(N)=O)C(N)=O [Des-(Phe1-Gln9)FN38] (H-KLGKSNVVEELQSPFASQSRGYFLFRPRN-NH2; N-terminus assumed) |  | 55 |  | −70 |

Further lines, with some results ahead:

| remaining at 5 h ([1]; percent of stable, human brush border membrane extracts, five hours, 37° C., read-out: BBM) [%] | remaining at 5 h [1, 2] [%] | SMILES | FI (60′, 200) (NIH/Swiss mice; food intake, % change relative to control, 60 min, dose 200) [%] | Food Intake Inhibition (NIH/Swiss mice) [%] |
| --- | --- | --- | --- | --- |
|  | 61 | CC(C)C[C@H](NC(=O)[C@H](CCCCN)NC(=O)[C@H](CCC(N)=O)NC(=O)[C@@H](NC(=O)[C@H](CCCCN)NC(=O)[C@H](CO)NC(=O)[C@H](Cc1ccc(O)cc1)NC(=O)[C@H](Cc1c[nH]cn1)NC(=O)[C@H](Cc1ccccc1)NC(=O)[C@H](CC(C)C)NC(=O)[C@@H](N)Cc1ccccc1)[C@@H](C)O)C(=O)NCC(=O)N[C@@H](CCCCN)C(=O)N[C@@H](CO)C(=O)N[C@@H](CC(N)=O)C(=O)N[C@H](C(=O)N[C@H](C(=O)N[C@@H](CCC(=O)O)C(=O)N[C@@H](CCC(=O)O)C(=O)N[C@@H](CC(C)C)C(=O)N[C@@H](CCC(N)=O)C(=O)N[C@@H](CO)C(=O)N1CCC[C@H]1C(=O)N[C@@H](CO)C(=O)N[C@@H](CCCNC(=N)N)C(=O)NCC(=O)N[C@@H](Cc1ccc(O)cc1)C(=O)N[C@@H](Cc1ccccc1)C(=O)N[C@@H](CC(C)C)C(=O)N[C@@H](Cc1ccccc1)C(=O)N[C@@H](CCCNC(=N)N)C(=O)N1CCC[C@H]1C(=O)N[C@@H](CCCNC(=N)N)C(=O)N[C@@H](CC(N)=O)C(N)=O)C(C)C)C(C)C [Des-(Phe24,Ala25,Ser26,Gln27)-FN38] (H-FLFHYSKTQKLGKSNVVEELQSPSRGYFLFRPRN-NH2; N-terminus assumed) |  | −83 |
|  | 28 | CC(C)C[C@H](NC(=O)[C@H](CCCCN)NC(=O)[C@H](Cc1ccc(O)cc1)NC(=O)[C@H](Cc1c[nH]cn1)NC(=O)[C@H](Cc1ccccc1)NC(=O)[C@H](CC(C)C)NC(=O)[C@@H](N)Cc1ccccc1)C(=O)NCC(=O)N[C@@H](CCCCN)C(=O)N[C@@H](CO)C(=O)N[C@@H](CC(N)=O)C(=O)N[C@H](C(=O)N[C@H](C(=O)N[C@@H](CCC(=O)O)C(=O)N[C@@H](CCC(=O)O)C(=O)N[C@@H](CC(C)C)C(=O)N[C@@H](CCC(N)=O)C(=O)N[C@@H](CO)C(=O)N1CCC[C@H]1C(=O)N[C@@H](Cc1ccccc1)C(=O)N[C@@H](C)C(=O)N[C@@H](CO)C(=O)N[C@@H](CCC(N)=O)C(=O)N[C@@H](CO)C(=O)N[C@@H](CCCNC(=N)N)C(=O)NCC(=O)N[C@@H](Cc1ccc(O)cc1)C(=O)N[C@@H](Cc1ccccc1)C(=O)N[C@@H](CC(C)C)C(=O)N[C@@H](Cc1ccccc1)C(=O)N[C@@H](CCCNC(=N)N)C(=O)N1CCC[C@H]1C(=O)N[C@@H](CCCNC(=N)N)C(=O)N[C@@H](CC(N)=O)C(N)=O)C(C)C)C(C)C [Des-(Ser6,Lys7,Thr8,Gln9)FN38] (H-FLFHYKLGKSNVVEELQSPFASQSRGYFLFRPRN-NH2; N-terminus assumed) |  | −72 |
|  | 73 | CC(C)C[C@H](NC(=O)[C@H](CCCCN)NC(=O)[C@H](CCC(N)=O)NC(=O)[C@@H](NC(=O)[C@H](CCCCN)NC(=O)[C@H](CO)NC(=O)[C@H](Cc1ccc(O)cc1)NC(=O)[C@H](Cc1c[nH]cn1)NC(=O)[C@H](Cc1ccccc1)NC(=O)[C@H](CC(C)C)NC(=O)[C@@H](N)Cc1ccccc1)[C@@H](C)O)C(=O)NCC(=O)N[C@@H](CCCCN)C(=O)N[C@@H](CO)C(=O)N[C@@H](CC(N)=O)C(=O)N[C@@H](CCC(=O)O)C(=O)N[C@@H](CCC(=O)O)C(=O)N[C@@H](CC(C)C)C(=O)N[C@@H](CCC(N)=O)C(=O)N[C@@H](CO)C(=O)N1CCC[C@H]1C(=O)N[C@@H](Cc1ccccc1)C(=O)N[C@@H](C)C(=O)N[C@@H](CO)C(=O)N[C@@H](CCC(N)=O)C(=O)N[C@@H](CO)C(=O)N[C@@H](CCCNC(=N)N)C(=O)NCC(=O)N[C@@H](Cc1ccc(O)cc1)C(=O)N[C@@H](Cc1ccccc1)C(=O)N[C@@H](CC(C)C)C(=O)N[C@@H](Cc1ccccc1)C(=O)N[C@@H](CCCNC(=N)N)C(=O)N1CCC[C@H]1C(=O)N[C@@H](CCCNC(=N)N)C(=O)N[C@@H](CC(N)=O)C(N)=O [Des-Val16,Val17-FN38] (H-FLFHYSKTQKLGKSNEELQSPFASQSRGYFLFRPRN-NH2; N-terminus assumed) |  | −60 |
